Source: patent US8753833B2, “Copolymer assay” (Momenta Pharmaceuticals, Inc., priority 2007, dated 2014)
Marks after values point to notes of the source that are not given here.

System: THP-1 cells
Experiment: THP-1 copolymer assay: secretion of IFN-γ-regulated chemokines, cytokines, receptors and proteases, Searchlight multiplex analysis
Format: cell-based, human
Procedure: THP-1 cells (ATCC, TIB-202) were received from the American Type Culture Collection (ATCC). […] Cells were grown in complete growth medium and incubated in a 37° C., 5% CO2 incubator.
Assay medium was prepared fresh the day of the assay. The assay medium consisted of 2 mM Glutamax I Supplement (Invitrogen, 35050-79) in X-VIVO 15 serum-free medium (Cambrex, 04-418Q). These reagents were filtered in a 0.2 micron cellulose acetate filter unit (Nalgene, 156-4020). After filtration, the bottle was covered with foil to protect the medium from light.
COPAXONE® (glatiramer acetate; Teva Pharmaceuticals) was stored in the manufacturer's syringe at 4° C. Samples were prepared at a 2× concentration in the 2×IFN-γ assay medium in sterile, siliconized microfuge tubes. Final concentrations from 0 μg/ml to 400 μg/ml were tested in the assay.
Human IFN-γ (R&D Systems, 285-IF-100) was reconstituted with sterile 0.2% bovine serum albumin (BSA) in phosphate-buffered saline (PBS) (Chemicon, 3225-80).
On the day prior to assay, THP-1 cells were seeded at 2×10^5 cells/ml (20 ml final volume). These cells were harvested by centrifugation at 400×g, 5 min, 18° C. Cells were washed once with assay medium (without IFN-γ) and resuspended in assay medium (without IFN-γ) and counted. THP-1 cells were resuspended at 5×10^5 cells/ml in assay medium (with 0, 1, 10, and 100 ng/ml final concentration of IFN-γ). […] Assay plates were incubated for 0 to 23 hours in a 37° C., 5% CO2 incubator.
Conditioned medium was harvested into non-sterile, siliconized tubes. Tubes were centrifuged at 400×g, 5 min, 4° C. The supernatants were transferred to new, siliconized tubes and flash frozen in liquid nitrogen. Frozen conditioned medium was stored at −80° C. until they were submitted for Searchlight multiplex cytokine analysis (Pierce Endogen, Woburn, Mass.).

[1] = 50 μg/ml COPAXONE and 10 ng/ml IFN-γ, FIG. 1
[2] = 23 hours, GA 2 μg/ml, IFNγ 0 ng/ml
[3] = 23 hours, GA 2 μg/ml, IFNγ 10 ng/ml
[4] = 23 hours, GA 2 μg/ml, IFNγ 100 ng/ml
[5] = 23 hours, GA 2 μg/ml, IFNγ 1000 ng/ml
[6] = 23 hours, GA 10 μg/ml, IFNγ 0 ng/ml
[7] = 23 hours, GA 10 μg/ml, IFNγ 10 ng/ml
[8] = 23 hours, GA 10 μg/ml, IFNγ 100 ng/ml
[9] = 23 hours, GA 10 μg/ml, IFNγ 1000 ng/ml

glatiramer acetate [COPAXONE®]
I-TAC level, fold higher than baseline containing IFN-γ alone [1]: 412 fold | IP-10 level, fold higher than baseline containing IFN-γ alone [1]: 329 fold | MIG level, fold higher than baseline containing IFN-γ alone [1]: 573 fold | I-TAC induction, fold increase over the control (0) [2]: 1 fold | IP-10 induction, fold increase over the control (0) [2]: 0 fold | MIG induction, fold increase over the control (0) [2]: 1 fold | I-TAC induction, fold increase over the control (0) [3]: 10 fold | IP-10 induction, fold increase over the control (0) [3]: 72 fold | MIG induction, fold increase over the control (0) [3]: 21 fold | I-TAC induction, fold increase over the control (0) [4]: 46 fold | IP-10 induction, fold increase over the control (0) [4]: 49 fold | MIG induction, fold increase over the control (0) [4]: 39 fold | I-TAC induction, fold increase over the control (0) [5]: 23 fold | IP-10 induction, fold increase over the control (0) [5]: 13 fold | MIG induction, fold increase over the control (0) [5]: 23 fold | I-TAC induction, fold increase over the control (0) [6]: 4 fold | IP-10 induction, fold increase over the control (0) [6]: 0 fold | MIG induction, fold increase over the control (0) [6]: 1 fold | I-TAC induction, fold increase over the control (0) [7]: 51 fold | IP-10 induction, fold increase over the control (0) [7]: 233 fold | MIG induction, fold increase over the control (0) [7]: 284 fold | I-TAC induction, fold increase over the control (0) [8]: 113 fold | IP-10 induction, fold increase over the control (0) [8]: 67 fold | MIG induction, fold increase over the control (0) [8]: 333 fold | I-TAC induction, fold increase over the control (0) [9]: 49 fold | IP-10 induction, fold increase over the control (0) [9]: 14 fold | MIG induction, fold increase over the control (0) [9]: 160 fold | IFN-γ concentration at which fold-induction over baseline is maximal (23 hours, IP-10, I-TAC, MIG): 1 to 10 ng/mL | IP-10 production in the absence of IFN-γ (COPAXONE alone, no IFN-γ): do not produce any significant amount | Earliest time at which lower levels of IP-10, I-TAC and MIG can be detected (COPAXONE and the higher IFN-γ concentrations): 3 to 6 h | Effect on secretion of IP-10, I-TAC and MIG (COPAXONE in combination with IFN-γ): striking, concentration-dependent effect | I309 secretion (IFNγ 10 ng/ml + 50 μg/ml I356): 15.6* pg/ml | ICAM1 secretion (IFNγ 10 ng/ml + 50 μg/ml I356): 279.9* pg/ml | IL1β secretion (IFNγ 10 ng/ml + 50 μg/ml I356): 0.5* pg/ml | IL12p70 secretion (IFNγ 10 ng/ml + 50 μg/ml I356): 8.9* pg/ml | IL-6 secretion (IFNγ 10 ng/ml + 50 μg/ml I356): 3.8* pg/ml | IL-8 secretion (IFNγ 10 ng/ml + 50 μg/ml I356): 217.1* pg/ml | IL-10 secretion (IFNγ 10 ng/ml + 50 μg/ml I356): 0.7* pg/ml | IP10 secretion (IFNγ 10 ng/ml + 50 μg/ml I356): 4060.5* pg/ml | MCP1 secretion (IFNγ 10 ng/ml + 50 μg/ml I356): 688.2* pg/ml | MDC secretion (IFNγ 10 ng/ml + 50 μg/ml I356): 23.6* pg/ml | MIP1α secretion (IFNγ 10 ng/ml + 50 μg/ml I356): 73.9* pg/ml | MMP2 secretion (IFNγ 10 ng/ml + 50 μg/ml I356): 915.9* pg/ml | MMP9 secretion (IFNγ 10 ng/ml + 50 μg/ml I356): 8.9* pg/ml | RANTES secretion (IFNγ 10 ng/ml + 50 μg/ml I356): 352.2* pg/ml | TARC secretion (IFNγ 10 ng/ml + 50 μg/ml I356): 35.2* pg/ml | TIMP1 secretion (IFNγ 10 ng/ml + 50 μg/ml I356): 6364.3* pg/ml | TNFR1 secretion (IFNγ 10 ng/ml + 50 μg/ml I356): 35.8* pg/ml | TNFR2 secretion (IFNγ 10 ng/ml + 50 μg/ml I356): 34.4* pg/ml | TNFα secretion (IFNγ 10 ng/ml + 50 μg/ml I356): 61.3* pg/ml | IFNγ level in culture medium (IFNγ 10 ng/ml + 50 μg/ml I356, 24 hr): 4575.9* pg/ml | I309 Fold-increase (IFNγ + 50 μg/ml I356 over IFNγ alone (10 ng/ml)): 9.7 fold
